# Patent US4481198A, “Vitamin D metabolism inhibitor” (Wisconsin Alumni Research Foundation, priority 1984, dated 1984)
# Several values for one entry are separate records, joined by “and”; a condition that tells them apart may be missing. Identical values can stand only once. Entries after “also recorded” stand apart in the source; their conditions may differ.
# Columns and labels:
# [1] = tested on: 25-hydroxylation of vitamin D3; settings: high doses required; cited from earlier work
# [2] = tested on: enzymatic 25-hydroxylation of vitamin D3 (microsomal enzyme system from rat liver); assay: in vitro 25-hydroxylation of vitamin D3 in rat liver microsomal enzyme system; format: biochemical
# Protocol: Male rats, obtained as weanlings (Holtzman, Madison, WI) were maintained on a vitamin D-deficient 0.5% calcium and 0.3% phosphorus diet for 4-6 weeks prior to use for in vitro 25-hydroxylation assays. Animals were fasted 18 h to deplete glycogen stores prior to study.
# The microsomes were prepared by the method of Madhok and DeLuca (Biochem. J. 184, 491 (1979)). Livers were homogenized in 3 vol of 0.25M sucrose using a Potter-Elvehjem homogenizer fitted with a Teflon pestle. All centrifugation steps were done using a type 30 rotor and a Beckman L5-50 ultracentrifuge (Beckman Instruments, Lincolnwood, Ill.). […]
# The work-up of the incubation mixture involved separation of the organic phase, and evaporation of solvent; the residue was then taken up in hexane:CHCl3 :MeOH (90:10:5) and applied to a Sephadex LH-20 column (Pharmacia, Piscataway, N.J.) (0.7×12 cm). […] The radioactivity in the 25-OH-D3region was used as a measure of enzyme activity and the UV peak (254 nm) as a measure of recovery. Radioactivity was determined on a Packard Instruments 3255 liquid scintillation counter using a toluene counting solution with 0.4% p-bis-[2-(5-phenyloxazolyl)]-benzene and 0.03% dimethyl-1,4-bis-[2-(5-phenyloxazolyl)]-benzene. […] The enzyme activity was expressed as picomole product (25-OH-D3) produced per milligram protein per 2 hours.
SMILES,inhibition of 25-hydroxylation of vitamin D3 by known antagonists (in words) [1],"25-OH-D3 Formation ([2]; [S] 200 nM vitamin D3, [I] 500 nM, inhibitor preincubated at 37° C. for 10 min, controls without inhibitor 0.46, 0.24, 0.36)","inhibition of 25-OH-D3 formation from vitamin D3 (in words) ([2]; rat liver microsomal system, 500 nM inhibitor, 2.5 times the substrate concentration)"
"CC(C)CCC[C@@H](C)[C@H]1CC[C@H]2/C(=C/C=C3/C[C@@H](O)CCC3CO)CCC[C@]12C (stereo partly drawn) [19-hydroxy-10,19-dihydro-vitamin D3]",partial inhibition,,
"C=C1CC[C@H](O)C/C1=C/C=C1\CCC[C@]2(C)[C@@H]([C@H](C)CCC(=NO)C(C)C)CC[C@@H]12 [24-(NOH)D3, vitamin D3-24-oxime]",,0.09 pmol/2h/mg protein and 0.05 pmol/2h/mg protein,markedly suppressed; also recorded: dramatically suppresses
